# Publication PMC9320886, “Daily Intraperitoneal Administration of Rosiglitazone Does Not Improve Lung Function or Alveolarization in Preterm Rabbits Exposed to Hyperoxia” (Pharmaceutics, 2022)
# Like-named read-outs stand apart in the source and are kept apart here.
# Assays:
# newborn rats = system: newborn rats; parameters: method as in PMID 19262292; settings: daily i.p. doses as low as 0.3 mg/kg; cited from earlier work
# premature rabbits = system: premature rabbits; parameters: method as in PMID 26375032; settings: 3 mg/kg i.m. to the mothers 24 and 48 h prior to delivery; cited from earlier work
# PPARγ = assay: target engagement (TE%) evaluation from unbound plasma concentration and EC50
# Method: In a subsequent experimental session, we investigated the pulmonary outcomes of a higher intraperitoneal RGZ dose. To define the RGZ dose, a target engagement (TE%) evaluation was performed based on the unbound plasma and EC50 values for RGZ previously determined in vitro. […] TE% at each time point was calculated according to the following formula.
# [1] = system: premature rabbit pups with intraventricular hemorrhage; parameters: method as in PMID 34462350; settings: twice-daily 0.1 mg/kg; cited from earlier work
# [2] = pharmacokinetic profiling in preterm rabbits; assay type: in vivo, rabbit
# [3] = Caco-2 permeability assay; assay type: in vitro ADME; settings: human, apical to basolateral
# Method: Caco-2 cells were purchased from ReadyCell (Barcelona, Spain). The cells arrived already seeded and differentiated (21-days) in 96-well plates (CacoReady 96-well kits, ReadyCell). Cells were maintained in a cell culture medium: Dulbecco’s modified Eagle’s medium (DMEM) 1 g/L glucose containing 10% fetal bovine serum, 1% L-glutamine 200 mM, and 1% penicillin (10,000 U/mL)–streptomycin (10 mg/mL), all from Merck KGaA. The buffer used in the assay was Hanks Balanced Salt Solution (HBSS, Merck). Control compounds were: sulpiride (low permeability control), metoprolol (high permeability control), talinolol (P-glycoprotein transport (Pgp) substrate control), and GF120918 (Elacridar, Pgp inhibitor), all purchased from Merck KGaA.
# The day of the experiment, the integrity of the cell monolayers was assessed before and after the assay by measuring the transepithelial electrical resistance (TEER). The permeability of the compounds across the cell monolayer was determined by measuring their transport in both directions: apical to basolateral (A → B) and basolateral to apical (B → A) in the absence and presence of Elacridar (a known P-gp inhibitor). The donor working solution was prepared by dilution of the DMSO stock of the test compound or positive control with HBSS (pH 7.4) to 10 µM. For A → B directional transport, the donor working solution (with test compound or positive control, with or without P-gp inhibitor) was added to the apical (A) and HBSS was added to the basolateral (B) compartment. For B → A directional transport, the donor working solution (with positive control or test compound […], with or without P-gp inhibitor) was added to the basolateral (B) and HBSS was added to the apical (A) compartment. The assay was performed with a Hamilton Star Lab robotic system. Samples were collected at t0 and 2 h after incubation (5% CO2, 95% relative humidity, 37 °C) for LC-MS/MS analyses.
# Apparent permeability (Papp) was calculated with the following equation: (5) Papp(cm/sec)=(Vr/C0)×(1/A)×(Cr(t)/t) where Vr is the volume of the solution in the receiving compartment (mL); C0 is the initial test compound concentration in the donor compartment (expressed as area ratio); A is the membrane surface area (0.14 cm^2); Cr (t) is the measured concentration of the receiver well at time t120 (expressed as area ratio); and t is time of incubation (sec).
# [4] = system: preterm rabbits exposed to hyperoxia; assay: pulmonary efficacy, daily intraperitoneal 10 mg/kg, preterm rabbits exposed to hyperoxia; assay type: in vivo, rabbit; settings: daily i.p. 10 mg/kg
# Method: At Day 7, invasive lung function testing was performed using the forced oscillation technique with the flexiVent^TM apparatus (SCIREQ, Montréal, Canada). Pups were anesthetized with intramuscular ketamine (35 mg/kg) and xylazine (6 mg/kg) before a tracheostomy was performed, and an 18-gauge metal needle was inserted in the trachea and tied. Pups were connected to the volume-controlled mechanical ventilation of the flexiVent^TM (SCIREQ, tidal volume 10 mL/kg, frequency of 120 breaths/min, PEEP of 3 cmH2O). All pups were euthanized with a pentothal sodium overdose.
# The following parameters were measured: total inspiratory capacity, resistance of the respiratory system (Rrs), lung tissue damping (G), lung tissue elastance (H), and static compliance (Cst). Three consistent measurements were obtained, with a coefficient of determination >0.95 as the limit to accept the measurement. The average of three measurements was calculated and used in the analysis.
# At necropsy, lungs were removed en bloc and a 20-gauge catheter was secured inside the trachea. Lungs were fixed with 10% buffered formalin (Sigma-Aldrich) for at least 4 h under constant pressure (25 cmH2O) using a custom-made fixation device to ensure homogenous fixation pressures. After removal from pressure fixation, the lungs were first left in formalin for at least 24 h and then transferred to 70% ethanol.
# The left lung and the right lungs were embedded in paraffin, cut, and stained with hematoxylin and eosin (H&E) following standard histology protocols. The radial alveolar count (RAC) was performed by an expert pathologist blinded to the experimental design by drawing a perpendicular line from the lumen of the terminal bronchiole to the nearest connective tissue septum or pleural margin and the number of saccules or alveoli crossed by this line was counted as previously described. In total, 20 measurements were performed for each lung pair.
# An independent experimental session investigated the efficacy of RGZ at a higher dose (10 mg/kg). In total, 36 preterm rabbits with a GA of 28 days delivered from 4 does were randomized to either the control group (n = 18) or the RGZ 10 mg/kg group (n = 18 per group). Hyperoxia exposure, RGZ administration, animal care and feeding procedures, lung function testing, RAC, and sample collection were performed as described above.
# [5] = rabbit, inhaled or intranasal, lung, intratracheal 1 mg/kg
smiles,measurement,setting,value
"CN(CCOc1ccc(CC2SC(=O)NC2=O)cc1)c1ccccn1 (centres unmarked) [RGZ, rosiglitazone]",alveolarization,newborn rats,enhanced
same,"surfactant synthesis (lamellar body count, SP-B and SP-C expression)",newborn rats,significantly promoted
same,hyperoxic lung injury at PND 7,premature rabbits,attenuated
same,target engagement (TE%),PPARγ,40–60%
same,target engagement (TE%),PPARγ; linear scaling model to intraperitoneal 10 mg/kg,> 90%
same,target engagement (TE%),PPARγ; listed as rosiglitazone,50%
same,myelination and neurological recovery,[1],improved
same,detectability in plasma and lung,[2]; intratracheal or intraperitoneal 1 mg/kg,detectable levels in both compartments up to 24 h
same,time of peak,"[2]; plasma and lung tissue, irrespective of the administration method, 1 mg/kg",0.25 h
same,Cmax,[2]; [5],1070 ng/g
same,Tmax,[2]; [5],15 min
same,half-life,"[2]; rabbit, inhaled or intranasal, plasma, intratracheal 1 mg/kg",900 min
same,Tmax,"[2]; rabbit, ip, lung, intraperitoneal 1 mg/kg",15 min
same,AUC(0-t),"[2]; rabbit, ip, plasma, intraperitoneal 1 mg/kg",29500 ng·h/mL
same,Kp,"[2]; rabbit, lung and plasma, inhaled or intranasal, intratracheal 1 mg/kg, read-out: AUCLung/AUCPlasma",0.7
same,concentration at 24 h,"[2]; rabbit, plasma and lung, ip, 24 h after intraperitoneal administration, 1 mg/kg, read-out: levels in plasma and lung",> 500 ng/mL
same,"Papp A→B at 2 h, 10 µM","[3]; Caco-2, pH 7.4, with Elacridar (GF120918), concentration not given, with Elacridar, read-out: Papp with Pgp Inhibitor (A–B)",16.3 ×10⁻⁶ cm/s
same,"Papp A→B at 2 h, 10 µM","[3]; Caco-2, pH 7.4, 10 µM, 2 h, without Pgp inhibitor, read-out: Papp (A–B)",14.5 ×10⁻⁶ cm/s
same,plasma appearance,[4],"white, dense appearance"
same,RAC,"[4]; PND 7, vs vehicle",no difference between groups
same,inspiratory capacity,"[4]; PND 7, vs vehicle, p < 0.01",significantly lower
same,lung compliance (Cst),"[4]; PND 7, vs vehicle, p < 0.01",significantly lower
same,mortality,[4]; vs vehicle,similar
